Data as given in patent US20160143955A1, “METHOD FOR ISOLATING STROMAL VASCULAR FRACTION” (AGENCY FOR SCIENCE, TECHNOLOGY AND RESEARCH, priority 2013, published 2016).

test system: adipose-derived stem cells recovered from fat tissue; assay: Yield of adipose-derived stem cells (ASCs) after seven days of growth, compared to the collagenase-based method; type: cell-based; settings: mince 2.5 mins, incubate with agent at 37° C. for 1 hour; ASCs after seven days of growth vs collagenase-based method
Procedure: Fat tissue (adipose tissue) obtained as lipoaspirate or resected via surgeries are to be obtained prior conducting any of the methods as described herein. To ensure optimum cell viability, immediate isolation of stromal vascular fraction on the day the sample is obtained is recommended. However, the methods as described herein may be performed optimally within 24 hours of sample being obtained. If the methods of the present disclosure cannot be performed immediately upon harvest of sample or within 72 hours of the sample being obtained, the sample was stored at 4° C. In case of enzymatic digestion, the sample is brought to room temperature before proceeding to the isolation procedure.
Upon obtaining the sample as lipoaspirate, to remove debris, the fat tissue was washed with equal amount of buffer (such as phosphate buffered saline (PBS) or Hank's balanced salt solution (HBSS)). For example, for 50 cc or 50 gram volume of lipoaspirate, 50 ml of buffer was used. Washed sample was allowed to settle for a couple of minutes and fluid from the bottom was aspirated to leave fat layer in the top. Washing steps were repeated two times. Collected fat layer was divided into the different methods as described below.
i) Add an equal volume of collagenase solution (ml per gram or cc of fat pads) into one sterile vial and warm to 37° C. Typically, collagenase solution is composed of 2.5 μg/ml collagenase type I, 1% (wt/vol) Bovine Serum Albumin (BSA), 50 μg/ml D-glucose and 200 nM adenosine in buffer;
i) Place washed fat tissue into appropriate tubes. Add equal volume of HBSS solution. Usually 10 ml of fat is used for each variable for replicate treatment/plating. Resected fat is favorable for consistency of cell yield, but manually harvested lipoaspirates are acceptable though additional optimization work described below is recommended;
When homogenizer is to be used, mildly homogenize fat tissue samples at the lowest level setting for 1 min. As would be apparent to the skilled person in the art, different homogenizers would give very different results. […] Optimization for different type of fat tissues must be conducted to obtain optimized parameters and lengths of homogenizing time;
vi) Centrifuge samples at 450 g (about 1800 RPM) for 5 min to pellet dissociated stromal vascular fraction cells. […] Discard the top layer of floating mature adipocytes;
xii) Re-suspend pellet in buffer (PBS or HBSS; 1 ml per 100 cc original tissue). Sample out 10 μl and count cell number in 1:1 mixture of trypan blue by hemocytometer or automated cell counter.
xv) Plate into appropriate dishes and incubate culture plates in 37° C., 5% CO2 incubator. […]
The isolated stromal vascular fraction cells in the methods described above were analyzed for their qualities and yield of adipose-derived stem cells. […]

Compound	Yield (percentage yield of adipose-derived stem cells recovered)
Triton-X	0%
CNC[C@H](O)c1ccc(O)c(O)c1 [Epinephrine, epinephrine]	>85%
CC(C)NCC(O)c1ccc(O)c(O)c1 (stereo not shown) [Isoprenaline, isoprenaline]	>70%
Sodium deoxycholate [Sodium deoxycholate (SOC)]	0%
